Measured values as given in publication PMC5062570 (Nature Communications, 2016).
Entries after “also recorded” stand apart in the source; their conditions may differ.

Key:
[1] = molecular target: T1, CatE (Homo sapiens, UniProt P14091); assay: CatE purified enzyme fluorescence polarization assay; assay type: biochemical
T1 construct: purchased Creative BioMart CTSE-255H
T1 sequence (P14091 54-396): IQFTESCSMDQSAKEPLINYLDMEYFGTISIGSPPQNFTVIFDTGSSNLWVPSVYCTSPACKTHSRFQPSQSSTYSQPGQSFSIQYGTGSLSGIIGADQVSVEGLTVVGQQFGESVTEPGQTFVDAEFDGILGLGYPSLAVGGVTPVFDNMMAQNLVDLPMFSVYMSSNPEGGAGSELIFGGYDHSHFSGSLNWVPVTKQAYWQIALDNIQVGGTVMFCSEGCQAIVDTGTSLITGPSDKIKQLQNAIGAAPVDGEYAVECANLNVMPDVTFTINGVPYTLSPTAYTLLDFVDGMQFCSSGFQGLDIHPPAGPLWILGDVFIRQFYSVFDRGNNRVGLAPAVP
Method: Purified enzyme inhibition of BACE1, BACE2, CatD and CatE was determined using fluorescence polarization (FP) assays. Briefly, purified enzymes were treated with test compounds (1% DMSO, 37 °C) in the presence of synthetic peptide substrates (150 nM) in 30 μl total volume of NaOAc buffer (100 mM, pH 4.5, 0.0001% Tween-20) in a 384-well plate. After incubation, reactions were stopped and substrate captured by the addition of 1.5 μM streptavidin, and FP measured with an EnVision plate reader (PerkinElmer, excitation 485 nm, emission 530 nm). […] BACE2 activity was assessed with 0.5 nM recombinant BACE2 (R&D Systems 4097-AS) and the same synthetic substrate used for BACE1, with a 1 h incubation time. […] CatE activity was assessed with 1.0 nM recombinant CatE (Creative BioMart CTSE-255H) and the same synthetic substrate used for CatD, with a 1.5 h incubation time.

[2] = molecular target: T2, purified CatD (Homo sapiens, UniProt P07339); assay: PF-7802 labelling of purified CatD (probe-based competition); assay type: binding; details: 250 nM purified human mature CatD, NaOAc pH 4.5, PF-7802 100 nM
T2 construct: final maturation into a non-covalently associated heavy chain and light chain; purchased Sigma C8696; host or cells: human liver
T2 sequence (P07339 65-162 limits assumed): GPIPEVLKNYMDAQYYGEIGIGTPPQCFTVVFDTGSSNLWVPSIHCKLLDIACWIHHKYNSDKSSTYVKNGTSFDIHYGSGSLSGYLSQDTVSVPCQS
T2 sequence (P07339 169-412 limits assumed): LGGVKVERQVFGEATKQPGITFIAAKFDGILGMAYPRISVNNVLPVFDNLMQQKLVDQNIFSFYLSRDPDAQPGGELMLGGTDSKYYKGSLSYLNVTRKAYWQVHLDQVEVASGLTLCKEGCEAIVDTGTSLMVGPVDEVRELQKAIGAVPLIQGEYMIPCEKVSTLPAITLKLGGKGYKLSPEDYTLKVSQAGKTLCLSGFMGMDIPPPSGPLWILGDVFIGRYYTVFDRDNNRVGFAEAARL
Method: Purified CatD (Sigma C8696, isolated from human liver) or proCatD (R&D systems 1014-AS) was reconstituted and diluted to 250 nM in NaOAc buffer (50 mM, pH 4.5, 0.0001% Tween-20). […] Samples were analysed by in-gel fluorescence scanning and western blot with an α-CatD antibody (R&D Systems AF-1014) as described above for CatD knockdown.

[3] = system: BACE2; details: purified aspartyl proteases; not previously disclosed
[4] = system: aspartyl proteases (BACE2, cathepsin D, cathepsin E, pepsin and renin); details: assays with purified proteins; cited from earlier work

With `Cc1cc([C@H]2C[C@H]3[C@@H](C)SC(N)=N[C@@]3(c3ccc(F)cc3F)CO2)on1` [PF-9283] the IC50 [1] was 24 µM, the “Competition of PF-7802 labelling of purified mature CatD” value [2] was “competed by pretreatment with PF-9283 in a concentration-dependent manner; also recorded: concentration-dependently competed” and the “Fold selectivity for BACE1 over BACE2” value [3] was 1.9 fold. For the same molecule, the “Selectivity for BACE1 over cathepsins D and E” value [4] was “more than 200 fold”.
